Assay results reported in patent publication US20200155481A1, “INTRAMUSCULAR ATOVAQUONE FOR MALARIA PROPHYLAXIS” (THE JOHNS HOPKINS UNIVERSITY, priority 2017, published 2020).

Key:
[1] = system: P. berghei ANKA sporozoites; experiment: murine Plasmodium berghei sporozoite challenge model (prophylaxis efficacy); assay type: in vivo; settings: intramuscular, dose-dependent; mice; FIG. 2
Method: Four- to six-day old Anopheles stephensi adult mosquitoes fasted for 6 h were fed on Swiss Webster mice infected with P. berghei (ANKA 2.34 strain). Fed mosquitoes were maintained for 18 d (19° C., 80% relative humidity), when salivary glands were harvested into RPMI medium and disrupted by several passages through a 0.5 in 28-gauge needle to release sporozoites. Parasites were counted by hemocytometer and diluted to 25,000 mL^−1 RPMI. C57BL6 mice were challenged by intravenous infusion of 5,000 sporozoites in 200 μL RPMI.
(§1) All dosing materials were constituted just before use. Mepron suspension (150 mg/mL atovaquone) was the starting material. Pluronic F-68 (10%) was used to dilute Mepron to required dosing concentration (≤100 mg/mL), or as vehicle control. For the washed drug preparation, atovaquone was pelleted from diluted Mepron (50 mg/mL, 13,000×g, 10 min) and the supernatant was replaced with equal volume 0.9% NaCl. Washing was repeated three times prior to final resuspension of excipient-depleted atovaquone at 50 mg/mL in 0.9% NaCl for dosing. C57BL6 male mice (˜20 g; 3-5 per group) were injected intramuscularly (biceps femoris; 23-gauge needle, 100 μl Hamilton syringe) with diluted or washed Mepron (40 μl total volume, 20 μl per limb). Oral Mepron was administered by gavage. […]

[2] = in vivo; parameters: species or system mice; settings: male, C57BL6, mouse, im, 200 mg/kg
Method: as §1, with “gavage. At predetermined post-dose intervals, animals were challenged with P. berghei ANKA by infusion of 5,000 sporozoites into a tail vein. Starting 4 d post-challenge then weekly thereafter for 42 d, tail snip blood samples were examined for parasites via Giemsa-stained thin smears. Each experiment included an untreated cohort to validate the challenge. Efficacy outcomes were binary. The appearance of parasitemia in any animal in a cohort was designated a dosing failure.” for “gavage.”

[3] = cited from earlier work

half-life [2]: 182 h
SMILES: O=C1C(O)=C([C@H]2CC[C@H](c3ccc(Cl)cc3)CC2)C(=O)c2ccccc21 [atovaquone]
successful malaria prophylaxis (parasite-free), days post-challenge [1]: up to 42 days
solubility in water [3]: practically insoluble
